Assay results as given in ChEMBL document CHEMBL1153382 (J Med Chem, 2009).
The source made the active and inactive calls. No cut-off for these calls is given here.

How the values were obtained:
[1] = biological target: T1, 5-hydroxytryptamine receptor 2A (Homo sapiens, UniProt P28223); assay: Agonist activity at human 5HT2A receptor expressed in HEK293 cells at 10 uM assessed as calcium flux by FLIPR assay relative to serotonin; assay type: functional, cell-based
[2] = biological target: T1, 5-hydroxytryptamine receptor 2A; assay: Agonist activity at human 5HT2A receptor expressed in HEK293 cells assessed as calcium flux by FLIPR assay; assay type: functional, cell-based
[3] = biological target: T2, 5-hydroxytryptamine receptor 2B (Homo sapiens, UniProt P41595); assay: Agonist activity at human 5HT2B receptor expressed in HEK293 cells assessed as calcium flux by FLIPR assay; assay type: functional, cell-based
[4] = biological target: T2, 5-hydroxytryptamine receptor 2B; assay: Agonist activity at human 5HT2B receptor expressed in HEK293 cells at 10 uM assessed as calcium flux by FLIPR assay relative to serotonin; assay type: functional, cell-based
[5] = biological target: T3, 5-hydroxytryptamine receptor 2C (Homo sapiens, UniProt P28335); assay: Agonist activity at human 5HT2C receptor expressed in HEK293 cells assessed as calcium flux by FLIPR assay; assay type: functional, cell-based
T3 sequence (P28335 whole entry): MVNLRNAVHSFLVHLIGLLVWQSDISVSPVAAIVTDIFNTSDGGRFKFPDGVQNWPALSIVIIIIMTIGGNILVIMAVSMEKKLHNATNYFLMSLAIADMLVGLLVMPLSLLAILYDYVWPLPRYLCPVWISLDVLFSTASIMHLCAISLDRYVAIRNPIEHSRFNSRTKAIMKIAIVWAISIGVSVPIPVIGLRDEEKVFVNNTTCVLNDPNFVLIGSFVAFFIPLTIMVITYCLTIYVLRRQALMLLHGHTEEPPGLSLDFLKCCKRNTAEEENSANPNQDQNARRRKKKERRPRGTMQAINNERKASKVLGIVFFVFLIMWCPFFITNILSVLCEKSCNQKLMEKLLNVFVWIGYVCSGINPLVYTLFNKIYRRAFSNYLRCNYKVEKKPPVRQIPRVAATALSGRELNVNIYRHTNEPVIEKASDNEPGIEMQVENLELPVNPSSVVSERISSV

[6] = biological target: T4, 5-hydroxytryptamine receptor 2C (Homo sapiens) (UniProt P28335); assay: Agonist activity at human 5HT2C receptor expressed in HEK293 cells at 10 uM assessed as calcium flux by FLIPR assay relative to serotonin; assay type: functional, cell-based
T4 sequence (whole entry): T3 sequence (P28335 whole entry)

[7] = biological target: Serotonin 2 receptors; 5-HT2a & 5-HT2c (Homo sapiens) (UniProt P28223+P28335); assay: Selectivity ratio of EC50 for human 5HT2A receptor to EC50 for human 5HT2C receptor
[8] = species: Homo sapiens; assay: Selectivity ratio of EC50 for human 5HT2B receptor to EC50 for human 5HT2C receptor

T2 sequence (P41595 whole entry): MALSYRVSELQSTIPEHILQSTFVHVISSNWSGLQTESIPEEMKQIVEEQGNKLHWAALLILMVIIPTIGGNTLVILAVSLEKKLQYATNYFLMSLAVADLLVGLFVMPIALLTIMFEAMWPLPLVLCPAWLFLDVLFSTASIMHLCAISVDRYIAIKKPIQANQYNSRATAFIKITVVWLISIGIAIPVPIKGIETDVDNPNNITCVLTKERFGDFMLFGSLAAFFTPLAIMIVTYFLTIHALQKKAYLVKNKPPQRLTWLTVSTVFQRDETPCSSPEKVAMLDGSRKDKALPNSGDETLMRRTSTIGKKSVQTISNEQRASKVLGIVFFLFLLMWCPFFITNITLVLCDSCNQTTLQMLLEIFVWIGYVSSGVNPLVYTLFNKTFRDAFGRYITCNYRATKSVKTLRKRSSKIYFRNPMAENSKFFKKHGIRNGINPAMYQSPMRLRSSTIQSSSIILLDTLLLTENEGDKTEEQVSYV
Sequence of Serotonin 2 receptors; 5-HT2a & 5-HT2c (Homo sapiens) (P28223 whole entry, looked up, one chain of several): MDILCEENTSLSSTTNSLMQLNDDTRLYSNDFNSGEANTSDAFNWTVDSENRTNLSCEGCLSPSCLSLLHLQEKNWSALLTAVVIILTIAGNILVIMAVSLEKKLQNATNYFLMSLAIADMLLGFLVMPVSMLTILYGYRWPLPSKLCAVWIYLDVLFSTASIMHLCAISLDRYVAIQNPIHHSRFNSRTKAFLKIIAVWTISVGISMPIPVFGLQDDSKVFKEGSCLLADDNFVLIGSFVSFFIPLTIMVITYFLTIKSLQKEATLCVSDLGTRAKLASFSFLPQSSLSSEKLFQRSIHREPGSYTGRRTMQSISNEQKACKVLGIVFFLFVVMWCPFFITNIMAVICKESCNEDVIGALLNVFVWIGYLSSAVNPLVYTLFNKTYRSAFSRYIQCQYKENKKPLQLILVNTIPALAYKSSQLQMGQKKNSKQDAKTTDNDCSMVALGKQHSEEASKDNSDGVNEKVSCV
T1 sequence (P28223 whole entry): as the sequence (P28223 whole entry, looked up, one chain of several) above

With `NC[C@H]1C[C@@H]1c1ccccc1NC(=O)Nc1ccc(Cl)cc1` (relative stereo) the Emax [1] was < 12%, the Activity [2] was “inactive” and the Activity [3] was “inactive”. For the same compound, the Emax [4] was < 12%, the EC50 [5] was > 1000 nM and the Emax [6] was 38%.
`CC(=O)Nc1ccccc1[C@H]1C[C@@H]1CN` (relative stereo) was tested, and the Emax [1] was < 12%, the Activity [2] was “inactive” and the Activity [3] was “inactive”. For the same compound, the Emax [4] was < 12%, the EC50 [5] was > 1000 nM and the Emax [6] was 30%.
For `NC[C@H]1C[C@@H]1c1cccc(C#CCCCCO)c1` (relative stereo), the Emax [1] was < 12%, the Activity [2] was “inactive” and the EC50 [3] was 1740 nM. It also gave an Emax [4] of 17%, an EC50 [5] of 332 nM and an Emax [6] of 79%. For the same compound, the Ratio EC50 [7] was > 30 and the Ratio EC50 [8] was > 1.
For `NC[C@H]1C[C@@H]1c1ccc(C#CCCCCO)cc1` (relative stereo), the Emax [1] was < 12%, the Activity [2] was “inactive” and the Activity [3] was “inactive”. The Emax [4] was < 12%, the EC50 [5] was > 10000 nM and the Emax [6] was 24%.
For `NC[C@H]1C[C@@H]1c1cccc(-c2ccc(C(F)(F)F)cc2)c1` (relative stereo), the Emax [1] was < 12%, the Activity [2] was “inactive” and the Activity [3] was “inactive”. For the same compound, the Emax [4] was < 12%, the EC50 [5] was > 1000 nM and the Emax [6] was 61%.
In the case of `NC[C@H]1C[C@@H]1c1ccccc1-c1cc2ccccc2o1` (relative stereo), the Emax [1] is reported as < 12%, the Activity [2] is reported as “inactive” and the EC50 [3] is reported as > 1000 nM. The Emax [4] was 10%, the EC50 [5] was 1960 nM and the Emax [6] was 66%. For the same compound, the Ratio EC50 [8] was > 1.
For `NC[C@@H]1C[C@H]1c1ccccc1`, the EC50 [3] was 3090 nM and the EC50 [5] was 909 nM.
Compound `NC[C@@H]1C[C@H]1c1ccccc1Br` [listing 1 of 2 here] has an EC50 [3] of 224 nM and an EC50 [5] of 78 nM.
For `CC(=O)Nc1cccc([C@H]2C[C@@H]2CN)c1` (relative stereo), the Emax [1] was < 12%, the Activity [2] was “inactive” and the Activity [3] was “inactive”. The Emax [4] was < 12%, the EC50 [5] was > 1000 nM and the Emax [6] was 39%.
In the case of `C#Cc1cccc([C@H]2C[C@@H]2CN)c1` (relative stereo), the Emax [1] is reported as 42%, the EC50 [2] is reported as > 10000 nM and the EC50 [3] is reported as 185 nM. For the same compound, the Emax [4] was 84%, the EC50 [5] was 136 nM and the Emax [6] was 91%. It also gave a Ratio EC50 [8] of 1.4.
For `c1ccc(CNC[C@H]2C[C@@H]2c2ccccc2)cc1` (racemic), the Emax [1] was < 12%, the Activity [2] was “inactive” and the Activity [3] was “inactive”. For the same compound, the Emax [4] was 10% and the Emax [6] was 97%.
With `COc1ccc([C@H]2C[C@@H]2CN)cc1` (relative stereo) the Emax [1] was < 12%, the Activity [2] was “inactive” and the Activity [3] was “inactive”. For the same compound, the Emax [4] was < 12% and the Emax [6] was 86%.
`NC[C@H]1C[C@@H]1c1ccccc1NC(=O)c1ccccc1` (relative stereo) was tested, and the Emax [1] was < 12%, the Activity [2] was “inactive” and the Activity [3] was “inactive”. For the same compound, the Emax [4] was < 12%, the EC50 [5] was > 1000 nM and the Emax [6] was 39%.
In the case of `CC(C)(O)C#Cc1cccc([C@H]2C[C@@H]2CN)c1` (relative stereo), the Emax [1] is reported as < 12%, the Activity [2] is reported as “inactive” and the Activity [3] is reported as “inactive”. The Emax [4] was < 12%, the EC50 [5] was > 5000 nM and the Emax [6] was 62%.
With `NC[C@H]1C[C@@H]1c1ccccc1-c1ccc(F)cc1` (relative stereo) the Emax [1] was < 12%, the Activity [2] was “inactive” and the EC50 [3] was > 1000 nM. For the same compound, the Emax [4] was 43%, the EC50 [5] was 301 nM and the Emax [6] was 74%. For the same compound, the Ratio EC50 [8] was > 3.
For `NC[C@@H]1C[C@H]1c1ccccc1Br` [listing 2 of 2 here], the Emax [1] was < 12%, the Activity [2] was “inactive” and the Emax [4] was 96%. For the same compound, the Emax [6] was 113%, the Ratio EC50 [7] was > 128 and the Ratio EC50 [8] was 2.9.
With `NC[C@H]1C[C@@H]1c1cccc(NCc2ccccc2)c1` (relative stereo) the Emax [1] was < 12%, the Activity [2] was “inactive” and the Activity [3] was “inactive”. The Emax [4] was < 12%, the EC50 [5] was 1180 nM and the Emax [6] was 77%.
In the case of `NC[C@@H]1C[C@H]1c1ccccc1` (relative stereo) [listing 1 of 2 here], the EC50 [2] is reported as 1400 nM, the EC50 [3] is reported as 85 nM and the EC50 [5] is reported as 13 nM.
For `NC[C@H]1C[C@@H]1c1cccc(NC(=O)c2ccccc2)c1` (relative stereo), the Emax [1] was < 12%, the Activity [2] was “inactive” and the Activity [3] was “inactive”. For the same compound, the Emax [4] was < 12%, the EC50 [5] was > 1000 nM and the Emax [6] was 26%.
`NC[C@H]1C[C@@H]1c1ccc(-c2ccc(F)cc2)cc1` (relative stereo) was tested, and the Emax [1] was < 12%, the Activity [2] was “inactive” and the EC50 [3] was > 1000 nM. The Emax [4] was 10%, the EC50 [5] was > 1000 nM and the Emax [6] was 45%.
`NC[C@H]1C[C@@H]1c1cccc(Cl)c1Cl` (relative stereo) showed an Emax [1] of 77%, an Emax [4] of 89% and an Emax [6] of 96%. For the same compound, the Ratio EC50 [7] was 33 and the Ratio EC50 [8] was 1.4.
With `N[C@@H]1C[C@H]1c1ccccc1.N[C@H]1C[C@@H]1c1ccccc1` (racemic) [TRANYLCYPROMINE] the Emax [1] was < 12%, the Activity [2] was “inactive” and the EC50 [3] was > 5000 nM. It also gave an Emax [4] of 29%, an EC50 [5] of 2700 nM and an Emax [6] of 109%.
`NC[C@H]1C[C@@H]1c1cccc(-c2ccc(F)cc2)c1` (relative stereo) was tested, and the Emax [1] was < 12%, the Activity [2] was “inactive” and the Activity [3] was “inactive”. The Emax [4] was < 12%, the EC50 [5] was 695 nM and the Emax [6] was 79%.
`NC[C@H]1C[C@@H]1c1cccc(C(F)(F)F)c1` (relative stereo) showed an Emax [1] of 35%, an Emax [4] of 78% and an Emax [6] of 94%. It also gave a Ratio EC50 [7] of 50 and a Ratio EC50 [8] of 2.6.
With `Cc1ccc([C@H]2C[C@@H]2CN)cc1C` (relative stereo) the Emax [1] was 40%, the Emax [4] was 78% and the Emax [6] was 97%. The Ratio EC50 [7] was 68 and the Ratio EC50 [8] was 0.33.
`NC[C@H]1C[C@@H]1c1ccc(-c2ccco2)cc1` (relative stereo) was tested, and the Emax [1] was < 12%, the Activity [2] was “inactive” and the Activity [3] was “inactive”. For the same compound, the Emax [4] was < 12%, the EC50 [5] was 1200 nM and the Emax [6] was 75%.
With `Cc1ccc([C@H]2C[C@@H]2CN)c(Br)c1` (relative stereo) the Emax [1] was 62%, the Emax [4] was 68% and the Emax [6] was 84%. For the same compound, the Ratio EC50 [7] was 4.8 and the Ratio EC50 [8] was 1.2.
With `NC[C@H]1C[C@@H]1c1cccc(-c2cc3ccccc3o2)c1` (relative stereo) the Emax [1] was < 12%, the Activity [2] was “inactive” and the Activity [3] was “inactive”. For the same compound, the Emax [4] was < 12%, the EC50 [5] was > 1000 nM and the Emax [6] was 39%.
`NC[C@H]1C[C@@H]1c1cccc(Br)c1` (relative stereo) showed an Emax [1] of 55%, an Emax [4] of 74% and an Emax [6] of 90%. The Ratio EC50 [7] was 123 and the Ratio EC50 [8] was 10.
For `NC[C@H]1C[C@@H]1c1cccc(F)c1` (relative stereo), the Emax [1] was 71%, the Emax [4] was 87% and the Emax [6] was 92%. It also gave a Ratio EC50 [7] of 131 and a Ratio EC50 [8] of 1.1.
Work on `NC[C@H]1C[C@@H]1c1ccc(Cl)cc1Cl` (relative stereo) yielded an Emax [1] of 88%, an Emax [4] of 89% and an Emax [6] of 98%. It also gave a Ratio EC50 [7] of 2.9 and a Ratio EC50 [8] of 4.7.
`Cc1ccccc1[C@H]1C[C@@H]1CN` (relative stereo) showed an Emax [1] of 69%, an Emax [4] of 86% and an Emax [6] of 99%. The Ratio EC50 [7] was 71 and the Ratio EC50 [8] was 2.3.
With `N#Cc1ccc(-c2cccc([C@H]3C[C@@H]3CN)c2)cc1` (relative stereo) the Emax [1] was < 12%, the Activity [2] was “inactive” and the Activity [3] was “inactive”. For the same compound, the Emax [4] was < 12%, the EC50 [5] was > 1000 nM and the Emax [6] was 41%.
Work on `NC[C@H]1C[C@@H]1c1c(F)cccc1F` (relative stereo) yielded an Emax [1] of 38%, an Emax [4] of 58% and an Emax [6] of 85%. For the same compound, the Ratio EC50 [7] was > 11 and the Ratio EC50 [8] was 39.
Work on `NC[C@H]1C[C@@H]1c1cccc(Cl)c1` (relative stereo) yielded an Emax [1] of 42%, an Emax [4] of 78% and an Emax [6] of 98%. The Ratio EC50 [7] was 189 and the Ratio EC50 [8] was 5.9.
For `NC[C@H]1C[C@@H]1c1cccc(-c2ccc(Cl)cc2)c1` (relative stereo), the Emax [1] was < 12%, the Activity [2] was “inactive” and the Activity [3] was “inactive”. The Emax [4] was < 12%, the EC50 [5] was 1580 nM and the Emax [6] was 87%.
In the case of `NC[C@@H]1C[C@H]1c1ccccc1` (relative stereo) [listing 2 of 2 here], the Emax [1] is reported as 74%, the Emax [4] is reported as 93% and the Emax [6] is reported as 96%. For the same compound, the Ratio EC50 [7] was 106 and the Ratio EC50 [8] was 6.
For `c1cc2c3c(c1)c1c(n3CCNC2)CCCC1`, the Emax [1] was < 12%, the Activity [2] was “inactive” and the Activity [3] was “inactive”. The Emax [4] was < 12% and the EC50 [5] was 261 nM.
`NC[C@H]1C[C@@H]1c1ccc(Cl)cc1F` (relative stereo) gave an Emax [1] of 83%, an Emax [4] of 86% and an Emax [6] of 94%. It also gave a Ratio EC50 [7] of 6.1 and a Ratio EC50 [8] of 3.6.
Work on `COc1ccccc1[C@H]1C[C@@H]1CN` (relative stereo) yielded an Emax [1] of 61%, an Emax [4] of 83% and an Emax [6] of 93%. The Ratio EC50 [7] was 84 and the Ratio EC50 [8] was 7.7.
